In PMC11073428, “The activity of pyrazolo[4,3-e][1,2,4]triazine and pyrazolo[4,3-e]tetrazolo[1,5-b][1,2,4]triazine sulphonamide derivatives in monolayer and spheroid breast cancer cell cultures” (Journal of Enzyme Inhibition and Medicinal Chemistry, 2024):

Columns and labels:
[1] = test system: MCF-7 breast cancer cells; assay: Apoptosis, annexin V-FITC/PI flow cytometry, MCF-7; type: cell-based, human; conditions: 24 h
Description: The analysis was performed using flow cytometry Apoptosis Detection Kit II (BD Biosciences, San Diego, CA) as described previously.

[2] = test system: caspase 3/7 in MDA-MB-231 cells; assay: Activity of caspase 3/7, MDA-MB-231; type: cell-based, human; conditions: 24 h
Description: MCF-7 and MDA-MB-231 cells were plated in six-well plates at density 1 × 10^6 and cultured in DMEM for 24 h. […] Then to identify the involvement of caspase family in inducing apoptosis, cells were pre-treated with Z-VAD-FMK (100 µM) 2 h before adding compounds[28]. The activation of caspases 9, 10, and 3/7 was detected as described before.

mTOR in MCF-7 cells = assay: Anti-mTOR antibody flow cytometry, MCF-7; type: cell-based, human; conditions: MCF-7, 0.25 µM and 0.5 µM, 24 h
Description: To evaluate the molecular mechanism of induction of apoptosis of tested compounds, the level of p53, NF-κB, mTOR, Bax, and beclin-1 was measured using appropriate antibody according to the manufacturer’s instruction. In brief, tryspinised cells were centrifuged, then supernatant was discarded, and cells were suspended in 4% FA (formaldehyde). Prepared samples were incubated 15 min at RT. Following incubation, the 2.5 mL PBS was added to each sample and centrifuged. Then, supernatant was discarded, and cells were resuspended in 90% ice-cold methanol to perform permeabilisation and left for 1 h in ice. To remove methanol, cells were rinsed with excess PBS by centrifugation. Following centrifugation, the supernatant was discarded. Then, cells were resuspended in 100 µL of appropriate diluted (1:100 in PBS) antibody conjugate (p53 (7F5) Rabbit mAb – Alexa Fluor 488 Conjugate #5429 Cell Signalling Technology, Danvers, MA; NF-κB p65 (D14E12) XP Rabbit mAb – Alexa Fluor 647 Conjugate #8801 Cell Signalling Technology, Danvers, MA; mTOR (7C10) Rabbit mAB – Alexa Fluor 647 #5048 Cell Signalling Technology, Danvers, MA; FITC Anti-Bax antibody (T22-A) #ab139543, Abcam, Cambridge, UK) and incubated 1 h in the dark at RT. Afterwards, cells were washed by centrifugation in 2 mL of incubation buffer. Finally, supernatant was removed and 300 µL PBS was added to each sample and pipetted. […]

[3] = test system: MDA-MB-231 breast cancer cells; assay: MTT viability assay, MDA-MB-231
Description: Following 24-h incubation with tested compounds, the medium was discarded from the cell cultures. Then, into each well with cells was added 1 mL of PBS and 50 µL of MTT solution (5 mg per mL). Cells were incubated at 37 °C and 5% CO2 in humidified atmosphere for a defined time appropriate for each cell line. After incubation, the solution above the cells was removed and obtained purple formazan crystals were dissolved in 1 mL DMSO. The absorbance was read at OD = 570 nm on Evolution 201 Spectrophotometer (Thermo Scientific, Waltham, MA).

For `Cc1nn(-c2ccc(S(=O)(=O)N[C@@H](CO)Cc3ccccc3)cc2)c2nn3nnnc3nc12` [Compound 3b, (R)-N-(1-hydroxy-3-phenylpropan-2-yl)-4-(7-methyl-5H-pyrazolo[4,3-e]tetrazolo[1,5-b][1,2,4]triazin-6-yl)benzenesulfonamide], the apoptotic cells ([1]; MCF-7, 0.25 µM) was 50.6 ± 3.5%, the “early and late apoptotic cells” value ([1]; MCF-7, 0.5 µM) was 98.9 ± 1.6% and the “cells with active executive caspases (3 and 7)” value ([2]; MDA-MB-231, 0.25 µM) was 23.8 ± 0.8%. The “cells with active executive caspases (3 and 7)” value ([2]; MDA-MB-231, 0.5 µM) was 68.4 ± 1.2%, the “effect on cells with active mTOR (in words)” value (mTOR in MCF-7 cells) was “decrease in the number of cells with active mTOR” and the IC50 ([3]; Homo sapiens, MDA-MB-231, 24 h, read-out: Cytotoxicity IC50 MDA-MB-231) was 0.31 ± 0.14 µM. The “times stronger than the corresponding sulphonyl derivative (2a or 2b), MDA-MB-231” value ([3]; ratio of cytotoxicity, 3a vs 2a, 3b vs 2b) was 25 times.
